This note sets out measurements from patent US11708344B2, “Flavone derivatives for the treatment and prophylaxis of hepatitis B virus disease” (Hoffmann-La Roche Inc., priority 2018, dated 2023).

Assay [1] deals with HBsAg in HBV-infected PHH. In words: Cryopreserved primary human hepatocytes (PHH) HBV infection assay, extracellular HBsAg (CLIA). The class given is cell-based. The conditions noted are these: Hepatitis B virus, Hepatocyte, 216 h, read-out: HBsAg IC50, Cryopreserved PHH infected with HBV, 9 days post-compound treatment, extracellular HBsAg. The gist of the method:
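Cryopreserved PHH were infected with 5.8×10^6 HBV genome equivalents in medium with 4% PEG8000 and 1% DMSO. After 9 days of treatment, extracellular HBsAg was measured by CLIA, and IC50 was derived from a 4-parameter logistic fit.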

The subject of assay [2] is HBeAg (surrogate marker for cccDNA) in HepDES19 cells. In words: Engineered HepDES19 primary screen assay (HBeAg ELISA). The class given is cell-based, HBV. The settings on record: Hepatitis B virus, HepDES19, 120 h, read-out: IC50 (HBeAg level, HepDES19 primary screen assay), HepDES19 cells, 5 days compound incubation, HBeAg ELISA. Put shortly: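 IC50 values come from 4-parameter logistic fits of HBeAg ELISA signal, the cccDNA surrogate, with CCK-8 run in parallel for viability. Compounds at half-log dilutions with 1% DMSO were applied for 5 days at 37 °C to HepDES19 cells previously cultured 8 days without Tet.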

Take `O=c1cc(-c2ccc(Br)cc2OCCO[C@H]2C[C@@H](C(=O)O)C2)oc2c(Cl)cccc12` [Example C003-A, Cis-3-[2-[5-bromo-2-(8-chloro-4-oxo-chromen-2-yl)phenoxy]ethoxy]cyclobutanecarboxylic acid]: the IC50 amounted to 8.77 µM in assay [1] and 1.07 µM in assay [2].

In general, IC50 refers to the point on the concentration scale where inhibition reaches its midpoint.
